# Experimental data as given in paper PMC3328449, “Inhibition of Diacylglycerol–Sensitive TRPC Channels by Synthetic and Natural Steroids” (PLoS ONE, 2012).
# Several values for one entry are separate records, joined by “and”; a condition that tells them apart may be missing. Identical values can stand only once.
# Target: T1, hTRPC3 (Homo sapiens, UniProt Q13507)
# T1 construct: expressed in transfected cells
# T1 sequence (Q13507 1-848 isoform Q13507-3): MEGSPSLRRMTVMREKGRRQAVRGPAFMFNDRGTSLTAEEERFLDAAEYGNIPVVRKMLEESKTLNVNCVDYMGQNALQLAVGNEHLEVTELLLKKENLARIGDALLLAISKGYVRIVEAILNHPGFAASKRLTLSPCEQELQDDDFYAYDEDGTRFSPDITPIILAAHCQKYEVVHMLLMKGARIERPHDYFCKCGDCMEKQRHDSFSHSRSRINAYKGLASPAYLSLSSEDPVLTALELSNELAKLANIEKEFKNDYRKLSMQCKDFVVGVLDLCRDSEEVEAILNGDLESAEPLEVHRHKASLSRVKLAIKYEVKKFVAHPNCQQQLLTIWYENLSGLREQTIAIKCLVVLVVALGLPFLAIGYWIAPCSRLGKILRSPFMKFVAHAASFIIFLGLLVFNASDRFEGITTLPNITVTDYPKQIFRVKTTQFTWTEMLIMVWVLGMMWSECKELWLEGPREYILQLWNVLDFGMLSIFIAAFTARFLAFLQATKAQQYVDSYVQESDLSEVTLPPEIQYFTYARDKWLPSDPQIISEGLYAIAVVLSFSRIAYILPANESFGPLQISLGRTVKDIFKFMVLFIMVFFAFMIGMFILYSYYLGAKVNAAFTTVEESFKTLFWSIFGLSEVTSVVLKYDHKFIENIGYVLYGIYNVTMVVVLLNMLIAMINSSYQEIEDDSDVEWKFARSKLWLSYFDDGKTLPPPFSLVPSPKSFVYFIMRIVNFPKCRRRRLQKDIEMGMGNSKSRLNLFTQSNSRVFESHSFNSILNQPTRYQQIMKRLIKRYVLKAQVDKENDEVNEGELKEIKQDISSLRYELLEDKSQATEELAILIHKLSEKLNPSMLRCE
# Experiment: OAG-induced Ca2+ entry, fluo-4 fluorometric imaging plate reader, TRPC3 CHO cells
# Type: cell-based
# Settings: for IC50: TRPC3 CHO cells, fluo-4, area under the curve, 10 min pre-incubation, read-out: IC50, inhibition of OAG-induced Ca2+ entry via TRPC3; for Hill slope n, inhibition of TRPC3-mediated Ca2+ entry: fit to Hill model
# Procedure: hTRPC3 (GenBank accession number NM_003305) was stably expressed in chinese hamster ovary (CHO) cells using a proprietary high expression vector (Steinbeis -Transferzentrum für Angewandte Biologische Chemie, Mannheim, Germany). Cells grown to an almost confluent monolayer on black poly-D-lysine coated 96-well plates (Greiner, Frickenhausen, Germany) were washed with standard extracellular solution (140 mM NaCl, 1 mM MgCl2, 5.4 mM KCl, 2 mM CaCl2, 10 mM HEPES, 10 mM glucose, pH 7.35) and stained (30 min, room temperature) with dye solution (2 μM fluo-4 AM, 0.02% pluronic F127, 0.1% bovine serum albumin in standard extracellular solution). Cells were washed and either incubated with standard extracellular solution only or with different concentrations of test compounds for 10 min. Fluo-4 fluorescence was excited at 488 nm with an argon laser and measured using a fluorometric imaging plate reader (Molecular Devices, Sunnyvale, USA). All fluorometric measurements were performed at room temperature. […] Baseline fluorescence in non-OAG-stimulated cells and OAG-stimulated Ca^2+ influx into control cells not treated with inhibitors were defined as 0% and 100% influx, respectively. For statistical analysis, analysis of variance was performed with Origin 6.0 software (Microcal Software Inc., Northampton, USA). […] Averaged data is expressed as means ± SEM.
SMILES,"Effect on TRPC3-mediated Ca2+ entry (30 µM pre-incubation, OAG-induced)",IC50,"Hill slope n, inhibition of TRPC3-mediated Ca2+ entry"
C#C[C@]1(OC(C)=O)CC[C@H]2[C@@H]3CCC4=CC(=NO)CC[C@@H]4[C@H]3CC[C@@]21CC (mixture of isomers) [norgestimate],significantly reduced,3 to 5 µM and 3 µM,1.67
CC(=O)[C@H]1CC[C@H]2[C@@H]3CCC4=CC(=O)CC[C@]4(C)[C@H]3CC[C@]12C [progesterone],,12.4 µM,3.6
